Measurements: US7223733B2, “Modulation of TRIP-Br function and method of treating proliferative disorders” (National University of Singapore, priority 2004, dated 2007)
Where no end group is shown, it is not given here.

Legend:
[1] = test system: KRIP-1/TRIP-Br PHD-bromodomain interaction; test: Immunoprecipitation assay of GAL4-KRIP-1/TRIP-Br complex formation (in vitro translated proteins); assay type: binding; conditions: 25 μM decoy peptides pre-incubated with GAL4-KRIP-1
Protocol: Preparation of proteins by in vitro translation. In vitro translation (IVT) products were synthesized from pcDNA3/TRIP-Br1, pcDNA3/TRIP-Br2 and pBlueScript/GAL4-KRIP-1 using the TNT T7 coupled reticulocyte lysate system (Promega). The in vitro translation reactions were carried out in a total reaction volume of 50 μl by incubating 1.0 μg of the indicated DNA template in nuclease-free water with 30 μl of TNT Quick master mix in the presence of [^35S]-methionine (Met) at 30° C. for 90 minutes.
Immunoprecipitation assay (IP). The binding reactions for IP were performed by incubating 1.5 μl [^35S]-Met labeled GAL4 or GAL4-KRIP-1 IVT products with 3 μl [^35S]-Met labeled TRIP-Br1 or TRIP-Br2 IVT products in 1×IP buffer (Hsu, S. I. H., et al. EMBO J. 20, 2273-2285 (2001)) at 4° C. for 1 h. For the analysis of decoy peptide-mediated blocking activity, the GAL4-KRIP-1 IVT product was pre-incubated with 25 μM decoy peptides at 4° C. for 30 minutes prior to addition of full-length TRIP-Br1 or TRIP-Br2 IVT products. Protein complexes precipitated using agarose-conjugated anti-GAL4 antibody were resolved by SDS-PAGE and then processed for autoradiography.
FIG. 1: TRIP-Br decoy peptides antagonize KRIP-1/TRIP-Br PHD-bromodomain interactions. […] GAL4-KRIP-1 was specifically immunoprecipitated by the agarose-conjugated anti-GAL4 antibody (Lanes 3-5 & 7–10) but not by the non-specific control anti-cyclin E antibody (Lane 6); (B) Antagonism of PHD-bromodomain interactions in vivo. U2OS cells were transiently transfected with 0.4 μg of the indicated GAL4 expression constructs and 1.2 μg of pMT3A/KRIP-1, along with 0.4 μg of the minimal luciferase reporter pG5-GL3 and 0.1 μg of the control reporter pCMV/β-gal. The transfected cells were exposed to either vehicle (0.5% DMSO) or 50 μM of the indicated decoy peptides prior to harvesting for sequential assay of luciferase and galactosidase activity. Fold activation refers to luciferase activity normalized to β-galactosidase activity, and is expressed relative to the activity observed with transfection of the reporter alone. […]

U2OS cells = test: BrdU incorporation colorimetric ELISA in U2OS cells; assay type: cell-based, human; conditions: for DNA synthesis activity (BrdU incorporation): U2OS, 50 μM, between 24 h and 48 h post-treatment; for ability to incorporate BrdU with increasing concentrations: U2OS, 5, 10, 20 or 50 μM, 48 h
Protocol: BrdU assay. U2OS cells grown in 96-well plates were exposed to either vehicle or decoy peptides. Bromodeoxyuridine (BrdU) incorporation was monitored with a colorimetric ELISA assay using a cell proliferation kit according to manufacturer's recommendations (Boehringer Mannheim).
FIG. 4: Time-dependent and dose-dependent anti-proliferative effects of the decoy peptides. (A) Time-dependent anti-proliferative effects of the decoy peptides. U2OS cells, exposed to either vehicle (0.5% DMSO) or 50 μM decoy peptides for either 24 or 48 h, were assayed for BrdU incorporation with a colorimetric ELISA assay. Values represent the average +/− standard deviation of two independent experiments; (B) Dose-dependent anti-proliferative effects of the decoy peptides. U2OS cells, exposed to 5, 10, 20 or 50 μM of *SCR (solid line and square), *Br1 (dashed line and triangle) or *Br2 (dashed line and circle) for 48 h, were assayed for BrdU incorporation with a colorimetric ELISA assay. Values represent the average +/− standard deviation of at least two independent experiments; (C) Cell proliferation analysis. Left panel: At 0, 48 and 72 h post decoy peptide treatment, total cell number was determined electronically using a Coulter® counter. Right panel: At 72 h post-treatment, cells were harvested and stained with trypan blue for viable cell count analysis.

[2] = test system: caspase-3 protease activity; test: Caspase assay with Ac-DEVD-AFC in U2OS cells; assay type: cell-based, human; conditions: 50 μM decoy peptides, 48 or 72 h
Protocol: Caspase assay. Both adherent and detached cells in 6-well dishes were harvested by centrifugation at 2000 rpm for 15 min at 4° C. The resulting cell pellets were incubated in 50 μl of chilled lysis buffer (Clontech) on ice for 10 min. Cell lysates were incubated in a reaction mix containing 10 mM HEPES, 2.0 mM EDTA, 10 mM KCl, 1.5 mM MgCl2, 1.0 mM PMSF, aprotinine, pepstatin A and leupeptine (20 μM each), 6.0 mM DTT and Ac-DEVD-AFC (4.0 μg/ml). Reactions were allowed to proceed at room temperature. Fluorescence readings were taken at 15 min intervals for 1 h using a spectrofluorometer (excitation wavelength: 400 nm; emission wavelength: 505 nm).
FIG. 6: Caspase assay. (A) Caspase 3 protease activity in U2OS cells exposed to either Eto (Etoposide) for 24 h or 50 μM decoy peptides for 48 or 72 h, were assayed using the Ac-DEVD-AFC fluorogenic substrate. […] Values represent the average +/− standard deviation of two independent experiments. Control: cells cultured in normal growth medium; Vehicle: cells cultured in the presence of 0.5% DMSO; (B) Western blot analysis of PARP cleavage. U2OS cells were exposed to either Eto (Etoposide) for 24 h or 50 μM decoy peptides for 72 h. Lane 1: Vehicle cells (cultured in the presence of 0.5% DMSO for 24 h); Lane 2: 25 μM Eto; Lane 3: 250 μM Eto; Lane 4: Vehicle (cells cultured in the presence of 0.5% DMSO for 72 h); Lane 5: *SCR; Lane 6: *Br1; Lane 7: *Br2.

Sequence of KRIP-1/TRIP-Br PHD-bromodomain interaction (Q62318 621-811 limits assumed): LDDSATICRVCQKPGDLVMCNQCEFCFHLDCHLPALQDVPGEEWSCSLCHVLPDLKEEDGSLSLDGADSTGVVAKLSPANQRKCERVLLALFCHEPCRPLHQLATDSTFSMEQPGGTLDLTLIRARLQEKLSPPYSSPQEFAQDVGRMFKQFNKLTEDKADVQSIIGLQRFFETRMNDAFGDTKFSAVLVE

In the case of “ERQIKIWFQNRRMKWKKATGCLLDDGLEGLFEDID (ERQIKIWFQNRRMKWKKATGCLLDDGLEGLFEDID-NH2) [*Br1]”, the “GAL4-KRIP-1/TRIP-Br complex formation (co-IP of TRIP-Br1 or TRIP-Br2)” value (“GAL4-KRIP-1/TRIP-Br complex formation” for short) [1] is reported as “dramatically reduced the ability of GAL4-KRIP-1 to co-IP TRIP-Br1 or TRIP-Br2”, the “DNA synthesis activity (BrdU incorporation)” value (from here on “DNA synthesis activity”) (U2OS cells) is reported as “substantially reduced DNA synthesis activity” and the “ability to incorporate BrdU with increasing concentrations” value (U2OS cells) is reported as “progressively reduced ability to incorporate BrdU”. For the same sequence, the “caspase-3 protease activity in cell lysates” value (“caspase-3 protease activity” for short) [2] was “indistinguishable from the baseline activity”.
“ERQIKIWFQNRRMKWKKGLDEDGLLLFCEGDTIAD (Peptide containing penetratin sequence from Drosophila and random peptide sequence) [*SCR, reference compound]” was tested, and the “GAL4-KRIP-1/TRIP-Br complex formation” value [1] was “did not affect GAL4-KRIP-1/TRIP-Br complex formation”, the “DNA synthesis activity” value (U2OS cells) was “basal DNA synthesis rate similar to that of the vehicle-treated control cells” and the “caspase-3 protease activity” value [2] was “indistinguishable from the baseline activity”.
In the case of “ERQIKIWFQNRRMKWKKTGFLTDLTLDDILFADID (ERQIKIWFQNRRMKWKKTGFLTDLTLDDILFADID-NH2) [*Br2]”, the “GAL4-KRIP-1/TRIP-Br complex formation” value [1] is reported as “dramatically reduced the ability of GAL4-KRIP-1 to co-IP TRIP-Br1 or TRIP-Br2”, the “DNA synthesis activity” value (U2OS cells) is reported as “substantially reduced DNA synthesis activity” and the “ability to incorporate BrdU with increasing concentrations” value (U2OS cells) is reported as “progressively reduced ability to incorporate BrdU”. The “caspase-3 protease activity” value [2] was “indistinguishable from the baseline activity”.
